Experimental data taken from patent publication EP4226916A1, “LIPID NANOPARTICLE COMPRISING PHOSPHATIDYLSERINE” (Universität Basel, priority 2022, dated 2023).

System: cellular uptake of PS-LNPs and LNPs
Test: Cellular uptake inhibition experiments
Format: cell-based
Details: at least 50% inhibition considered significant
Description: To elucidate mechanisms of cellular uptake and intracellular processing in the presence and absence of PS, we conducted a series of cellular uptake inhibition experiments. An arbitrary threshold of at least 50% inhibition was considered to be significant.

| SMILES | inhibition of uptake of PS-LNPs | inhibition of uptake of LNPs (without PS) |
| --- | --- | --- |
| CN(C)CCCN1c2ccccc2Sc2ccc(Cl)cc21 [Chlorpromazine] | specifically inhibited | – |
| COc1cc2c(c(OC)c1OC)-c1ccc(OC)c(=O)cc1[C@@H](NC(C)=O)CC2 [Colchicine] | specifically inhibited | specifically inhibited |
| O=C(N/N=C/c1ccc(O)c(O)c1)c1cc2ccccc2cc1O [Dynasore] | specifically inhibited | specifically inhibited |
